Data reported in ChEMBL document CHEMBL5120880, “Peptidomimetics: An Overview of Recent Medicinal Chemistry Efforts toward the Discovery of Novel Small Molecule Inhibitors” (J Med Chem, 2022).
Converted amounts (≈) assume the structure as drawn. Peptide text beside a SMILES is read from it.

Legend:
[1] = system: Staphylococcus epidermidis; test: Antimicrobial activity against Staphylococcus epidermidis KCTC 1917 assessed as minimal inhibitory concentration incubated for 18 hrs; assay type: functional
Pseudomonas aeruginosa = test: Antimicrobial activity against Pseudomonas aeruginosa KCTC 1637 assessed as minimal inhibitory concentration incubated for 18 hrs; assay type: functional
Staphylococcus aureus [2] = test: Antimicrobial activity against Staphylococcus aureus KCTC 1621 assessed as minimal inhibitory concentration incubated for 18 hrs; assay type: functional
Escherichia coli [3] = test: Antimicrobial activity against Escherichia coli KCTC 1682 assessed as minimal inhibitory concentration incubated for 18 hrs; assay type: functional
Escherichia coli [4] = test: Antibacterial activity against Escherichia coli assessed as minimal inhibitory concentration incubated for 24 hrs; assay type: functional
Bacillus subtilis [5] = test: Antibacterial activity against Bacillus subtilis assessed as minimal inhibitory concentration incubated for 72 hrs; assay type: functional
Staphylococcus aureus [6] = test: Antibacterial activity against Staphylococcus aureus MRSA assessed as minimal inhibitory concentration incubated for 24 hrs; assay type: functional
Salmonella enterica = test: Antibacterial activity against Salmonella enterica assessed as minimal inhibitory concentration incubated for 24 hrs; assay type: functional
Staphylococcus aureus [7] = test: Antibacterial activity against Staphylococcus aureus assessed as minimal inhibitory concentration incubated for 24 hrs; assay type: functional
SARS-CoV = test: microbe, parasite or virus in culture; conditions: Severe acute respiratory syndrome-related coronavirus
[8] = system: Middle East respiratory syndrome-related coronavirus; test: Antiviral activity against MERS-CoV by cell based assay; assay type: functional, organism-based
[9] = system: Feline infectious peritonitis virus; test: microbe, parasite or virus in culture; conditions: Alphacoronavirus 1
Murine hepatitis virus = test: microbe, parasite or virus in culture; conditions: Murine coronavirus
[10] = system: Middle East respiratory syndrome-related coronavirus; test: microbe, parasite or virus in culture
SARS-CoV-2 = test: microbe, parasite or virus in culture; conditions: Severe acute respiratory syndrome coronavirus 2
Escherichia coli [11] = test: Antibacterial activity against Escherichia coli AG100 assessed as minimal inhibitory concentration; assay type: functional
[12] = Inhibition of Acinetobacter baumannii […] assessed as measuring NADH consumption rate
Staphylococcus aureus [13] = test: Antibacterial activity against Staphylococcus aureus ATCC 29213 assessed as minimal inhibitory concentration; assay type: functional
Acinetobacter baumannii = test: Antibacterial activity against Acinetobacter baumannii ATCC BAA1605 assessed as minimal inhibitory concentration; assay type: functional
Bacillus subtilis [14] = test: Antibacterial activity against Bacillus subtilis DSM10 assessed as minimal inhibitory concentration by microdilution assay; assay type: functional
Mycolicibacterium phlei = test: Antibacterial activity against Mycobacterium phlei DSM750 assessed as minimal inhibitory concentration by microdilution assay; assay type: functional
Escherichia coli [15] = test: Antibacterial activity against Escherichia coli BW25113 assessed as minimal inhibitory concentration by microdilution assay; assay type: functional
Salmonella typhimurium = test: Antibacterial activity against Salmonella typhimurium TA100 assessed as minimal inhibitory concentration by microdilution assay; assay type: functional, Salmonella enterica subsp. enterica serovar Typhimurium; conditions: Salmonella enterica

SMILES	MIC [1]	MIC (Pseudomonas aeruginosa)	MIC (Staphylococcus aureus [2])	MIC (Escherichia coli [3])	MIC (Escherichia coli [4])	MIC (Bacillus subtilis [5])	MIC (Staphylococcus aureus [6])	MIC (Salmonella enterica)	MIC (Staphylococcus aureus [7])	also measured
CC(=O)NCCNc1nc(NCC(N)=O)nc(N(CCCN)CCCN)n1	> 128 µg/mL	128 µg/mL (≈ 335 µM)	> 128 µg/mL	128 µg/mL (≈ 335 µM)	–	–	–	–	–	–
C#Cc1cccc(NC(=O)[C@@H](N)CC(C)C)c1	–	–	–	–	10.6 µg/mL (≈ 46 µM)	31.2 µg/mL (≈ 135 µM)	31.2 µg/mL (≈ 135 µM)	15.6 µg/mL (≈ 67.7 µM)	10.6 µg/mL (≈ 46 µM)	–
CC(C)C[C@H](NC(=O)OC1CCCCC1)C(=O)N[C@@H](C[C@H]1CCNC1=O)C(O)S(=O)(=O)O (stereo partly drawn)	–	–	–	–	–	–	–	–	–	IC50 (SARS-CoV): 3800 nM; EC50 [8]: 80 nM; EC50 [9]: 70 nM; EC50 (Murine hepatitis virus): 80 nM; IC50 [10]: 150 nM; IC50 (SARS-CoV-2): 3500 nM
CC(=O)NCCNc1nc(NCC(N)=O)nc(N(Cc2ccccc2)Cc2ccccc2)n1	> 128 µg/mL	> 128 µg/mL	> 128 µg/mL	> 128 µg/mL	–	–	–	–	–	–
CCCCCCCCCCCCNC(=O)[C@@H](N)c1ccccc1	–	–	–	–	2.5 µg/mL (≈ 7.85 µM)	15.6 µg/mL (≈ 49 µM)	15.6 µg/mL (≈ 49 µM)	3.9 µg/mL (≈ 12.2 µM)	7.8 µg/mL (≈ 24.5 µM)	–
CCCCCCCCCCCCNC(=O)[C@@H](N)CC(C)C	–	–	–	–	2.5 µg/mL (≈ 8.37 µM)	10 µg/mL (≈ 33.5 µM)	6.25 µg/mL (≈ 20.9 µM)	4.17 µg/mL (≈ 14 µM)	3.3 µg/mL (≈ 11.1 µM)	–
Cc1oc2c(N)cccc2c1CN(C)C(=O)/C=C/c1cnc2c(c1)N[C@H](C)[C@H](N)C(=O)N2	–	–	–	–	–	–	–	–	–	MIC (Escherichia coli [11]): ≤ 4 µg/mL; IC50 [12]: < 10 nM; MIC (Staphylococcus aureus [13]): ≤ 4 µg/mL; MIC (Acinetobacter baumannii): ≤ 4 µg/mL
CCCCCCNC(=O)[C@@H](N)Cc1ccccc1	–	–	–	–	156 µg/mL (≈ 628 µM)	156 µg/mL (≈ 628 µM)	312 µg/mL (≈ 1260 µM)	156 µg/mL (≈ 628 µM)	624 µg/mL (≈ 2510 µM)	–
COc1c(CCc2ccc(NC(=O)[C@H](CC#N)NC(=O)c3ccc(NC(=O)/C(C)=C/c4ccc(O)cc4)cc3)cc2)ccc(C(=O)Nc2ccc(C(=O)O)c(O)c2OC)c1O	–	–	–	–	–	–	–	–	–	MIC (Bacillus subtilis [14]): 0.063 µg/mL (≈ 0.0761 µM); MIC (Mycolicibacterium phlei): 1 µg/mL (≈ 1.21 µM); MIC (Escherichia coli [15]): 0.25 µg/mL (≈ 0.302 µM); MIC (Salmonella typhimurium): 0.25 µg/mL (≈ 0.302 µM)
CC(C)C[C@H](NC(=O)OC1CCCCC1)C(=O)N[C@H](C=O)C[C@H]1CCNC1=O	–	–	–	–	–	–	–	–	–	IC50 (SARS-CoV): 3900 nM; EC50 [9]: 90 nM; EC50 (Murine hepatitis virus): 120 nM; IC50 [10]: 350 nM; IC50 (SARS-CoV-2): 3700 nM
COc1c(C#Cc2ccc(NC(=O)[C@H](CC#N)NC(=O)c3ccc(NC(=O)/C(C)=C/c4ccc(O)cc4)cc3)cc2)ccc(C(=O)Nc2ccc(C(=O)O)c(O)c2OC)c1O	–	–	–	–	–	–	–	–	–	MIC (Bacillus subtilis [14]): 0.063 µg/mL (≈ 0.0765 µM); MIC (Mycolicibacterium phlei): 0.5 µg/mL (≈ 0.607 µM); MIC (Escherichia coli [15]): < 0.063 µg/mL; MIC (Salmonella typhimurium): ≤ 0.016 µg/mL
CCCCCCCCCCCCNC(=O)[C@@H](N)Cc1ccccc1	–	–	–	–	5 µg/mL (≈ 15 µM)	10 µg/mL (≈ 30.1 µM)	16.6 µg/mL (≈ 49.9 µM)	5 µg/mL (≈ 15 µM)	2.5 µg/mL (≈ 7.52 µM)	–
Cc1c(CN(C)C(=O)/C=C/c2cnc3c(c2)N[C@H](C)[C@H](N)C(=O)N3)oc2ccccc12	–	–	–	–	–	–	–	–	–	MIC (Escherichia coli [11]): ≤ 4 µg/mL; IC50 [12]: < 10 nM; MIC (Staphylococcus aureus [13]): ≤ 4 µg/mL; MIC (Acinetobacter baumannii): ≤ 4 µg/mL
C#Cc1cccc(NC(=O)[C@@H](N)C(C)CC)c1 (stereo partly drawn)	–	–	–	–	15.6 µg/mL (≈ 67.7 µM)	–	62.4 µg/mL (≈ 271 µM)	15.6 µg/mL (≈ 67.7 µM)	31.2 µg/mL (≈ 135 µM)	–
CCCCNC(=O)[C@@H](N)Cc1ccccc1	–	–	–	–	–	416 µg/mL (≈ 1890 µM)	624 µg/mL (≈ 2830 µM)	416 µg/mL (≈ 1890 µM)	1250 µg/mL (≈ 5670 µM)	–
COc1c(NC(=O)c2ccc(NC(=O)c3ccc(NC(=O)[C@H](Cc4nn[nH]n4)NC(=O)c4ccc(NC(=O)/C(C)=C/c5ccc(O)cc5)cc4)cc3)c(OC)c2O)ccc(C(=O)O)c1O	–	–	–	–	–	–	–	–	–	MIC (Bacillus subtilis [14]): 0.25 µg/mL (≈ 0.282 µM); MIC (Mycolicibacterium phlei): 2 µg/mL (≈ 2.26 µM); MIC (Escherichia coli [15]): 0.063 µg/mL (≈ 0.0711 µM); MIC (Salmonella typhimurium): 0.063 µg/mL (≈ 0.0711 µM)
CC(=O)N[C@@H](CCCCN)C(=O)N[C@@H](Cc1c[nH]c2ccccc12)C(=O)N[C@@H](CCCCN)C(=O)N[C@@H](Cc1c[nH]c2ccccc12)C(N)=O (Ac-KWKW-NH2)	> 128 µg/mL	> 128 µg/mL	> 128 µg/mL	> 128 µg/mL	–	–	–	–	–	–
CC(=O)N[C@@H](CCCCN)C(=O)N[C@@H](Cc1c[nH]c2ccccc12)C(=O)N[C@@H](CCCCN)C(N)=O (Ac-Lys-Trp-Lys-NH2)	> 128 µg/mL	128 µg/mL (≈ 255 µM)	> 128 µg/mL	64 µg/mL (≈ 128 µM)	–	–	–	–	–	–
CC(=O)N[C@@H](CCCCN)C(=O)N[C@@H](Cc1c[nH]c2ccccc12)C(N)=O (Ac-Lys-Trp-NH2)	> 128 µg/mL	128 µg/mL (≈ 343 µM)	> 128 µg/mL	128 µg/mL (≈ 343 µM)	–	–	–	–	–	–
CC(=O)N[C@@H](Cc1c[nH]c2ccccc12)C(=O)N[C@@H](CCCCN)C(=O)N[C@@H](Cc1c[nH]c2ccccc12)C(N)=O (Ac-Trp-Lys-Trp-NH2)	> 128 µg/mL	> 128 µg/mL	> 128 µg/mL	> 128 µg/mL	–	–	–	–	–	–
